# Starred links: 1 amine or outer side, 2 acyl side, 3 side chain; linkers in the order of their positions; H or OH if unused. Positions of bridges follow the written chain, without caps; N, C: chain ends. Non-standard residues stand in square brackets, D forms with d. Residues, ends and D or L forms follow the SMILES beside them. ξ: configuration not given here. *: point of attachment. ξAbu(βξ-NH2) = CC(N[*:3])C(N[*:1])C(=O)[*:2]; Phac(3-amino) = O=C(Cc1cccc(N[*:1])c1)[*:2]; ξAbu(3ξ-NH-βAla) = CC(NC(=O)CCN)C(N)C(=O)O; X4 = CNCC(=O)NC(C)C(N[*:1])C(=O)[*:2]; ξAsp(βξ-Me) = CC(C(=O)O)C(N)C(=O)O; ξAbu(3ξ-NH2) = CC(N)C(N)C(=O)O; X32 = CC(C)CCCCCC/C=C\C(=O)*; Decanoyl = CCCCCCCCCC(=O)*; Octanoyl = CCCCCCCC(=O)*; Pip = O=C(O)[CH]1CCCCN1; Hexanoyl = CCCCCC(=O)*
# Test system: Staphylococcus aureus (MSSA)
# Conditions: 24 h
# Procedure, shortened: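 Broth microdilution MIC per NCCLS M7-A6 with doubling serial dilutions, in cation-adjusted Mueller-Hinton broth supplemented with 0.625 mM calcium.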
row,SMILES,MIC [µg/mL]
1,"CCCCCCCCCCCCCCC(=O)NC(CC(=O)O)C(=O)NC1C(=O)N2CCCCC2C(=O)NC(C(C)C(=O)O)C(=O)NC(CC(=O)O)C(=O)NCC(=O)NC(CC(=O)O)C(=O)NCC(=O)NC(C(C)NC(=O)[C@@H]2CCCN2C(=O)[C@@H](N)CCCCN)C(=O)NC(C(C)C)C(=O)N2CCCC2C(=O)NC1C (some centres unmarked) [Compound 353, C15-Amphomycin-9-Pro-Lys]",>64
2,"CC(C)C1NC(=O)C(C(C)NC(=O)CCN)NC(=O)CNC(=O)C(CC(=O)O)NC(=O)CNC(=O)C(CC(=O)O)NC(=O)C(C(C)C(=O)O)NC(=O)C2CCCCN2C(=O)C(NC(=O)C(N)CC(=O)O)C(C)NC(=O)C2CCCN2C1=O (stereo not drawn) [Compound 355, Amphomycin-9-(β-Ala)] (H-D[ξAbu(βξ-NH2)][Pip][ξAsp(βξ-Me)]DGDG[ξAbu(3ξ-NH-βAla)]VP; lactam 2-C; configuration not given here)",>64
3,"CNCC(=O)NC(C)C1NC(=O)CNC(=O)C(CC(=O)O)NC(=O)CNC(=O)C(CC(=O)O)NC(=O)C(C(C)C(=O)O)NC(=O)C2CCCCN2C(=O)C(NC(=O)C(N)CC(=O)O)C(C)NC(=O)C2CCCN2C(=O)C(C(C)C)NC1=O (stereo not drawn) [Compound 356, Amphomycin-9-Sar] (H-D[ξAbu(βξ-NH2)][Pip][ξAsp(βξ-Me)]DGDG[X4]VP; lactam 2-C; configuration not given here)",>64
4,"CC(C)CCCCCC/C=C\C(=O)NC(CC(=O)O)C(=O)NC1C(=O)N2CCCCC2C(=O)NC(C(C)C(=O)O)C(=O)NC(CC(=O)O)C(=O)NCC(=O)NC(CC(=O)O)C(=O)NCC(=O)NC(C(C)N)C(=O)NC(C(C)C)C(=O)N2CCCC2C(=O)NC1C (stereo not drawn) [Compound 364, (10-Methyl-Undec-2-Enoyl)-Amphomycin] (X32-D[ξAbu(βξ-NH2)][Pip][ξAsp(βξ-Me)]DGDG[ξAbu(3ξ-NH2)]VP; lactam 2-C; configuration not given here)",4 to 8

# Continued, values first:
row,MIC [µg/mL],SMILES
1,>64,"CCCCCC(=O)NCC(=O)NC(CC(=O)O)C(=O)NC1C(=O)N2CCCCC2C(=O)NC(C(C)C(=O)O)C(=O)NC(CC(=O)O)C(=O)NCC(=O)NC(CC(=O)O)C(=O)NCC(=O)NC(C(C)N)C(=O)NC(C(C)C)C(=O)N2CCCC2C(=O)NC1C (stereo not drawn) [Compound 358, C6-Gly-Amphomycin] (Hexanoyl-GD[ξAbu(βξ-NH2)][Pip][ξAsp(βξ-Me)]DGDG[ξAbu(3ξ-NH2)]VP; lactam 3-C; configuration not given here)"
2,>64,"CCCCCCCC(=O)NCC(=O)NC(CC(=O)O)C(=O)NC1C(=O)N2CCCCC2C(=O)NC(C(C)C(=O)O)C(=O)NC(CC(=O)O)C(=O)NCC(=O)NC(CC(=O)O)C(=O)NCC(=O)NC(C(C)N)C(=O)NC(C(C)C)C(=O)N2CCCC2C(=O)NC1C (stereo not drawn) [Compound 359, C8-Gly-Amphomycin] (Octanoyl-GD[ξAbu(βξ-NH2)][Pip][ξAsp(βξ-Me)]DGDG[ξAbu(3ξ-NH2)]VP; lactam 3-C; configuration not given here)"
3,>64,"CCCCCCCCCC(=O)NCC(=O)NC(CC(=O)O)C(=O)NC1C(=O)N2CCCCC2C(=O)NC(C(C)C(=O)O)C(=O)NC(CC(=O)O)C(=O)NCC(=O)NC(CC(=O)O)C(=O)NCC(=O)NC(C(C)N)C(=O)NC(C(C)C)C(=O)N2CCCC2C(=O)NC1C (stereo not drawn) [Compound 360, C10-Gly-Amphomycin] (Decanoyl-GD[ξAbu(βξ-NH2)][Pip][ξAsp(βξ-Me)]DGDG[ξAbu(3ξ-NH2)]VP; lactam 3-C; configuration not given here)"
4,>64,"CCCCCCCC(=O)Nc1cccc(CC(=O)NC(CC(=O)O)C(=O)NC2C(=O)N3CCCCC3C(=O)NC(C(C)C(=O)O)C(=O)NC(CC(=O)O)C(=O)NCC(=O)NC(CC(=O)O)C(=O)NCC(=O)NC(C(C)N)C(=O)NC(C(C)C)C(=O)N3CCCC3C(=O)NC2C)c1 (stereo not drawn) [Compound 361, C8-(M-Apa)-Amphomycin] (Octanoyl-[Phac(3-amino)]D[ξAbu(βξ-NH2)][Pip][ξAsp(βξ-Me)]DGDG[ξAbu(3ξ-NH2)]VP; lactam 3-C; configuration not given here)"

# — US7868135B2, “Compositions of lipopeptide antibiotic derivatives and methods of use thereof” (priority 2003, dated 2011)
